Test results published in the supplement of paper PMC4862054.

What was measured:
BT-474 [1] = assay: normalised viability (% of control), CellTiter-Blue; higher = more viable cells (100 = DMSO, 0 = benzethonium chloride kill control); settings: 1 nM; incubation time: 72 h
Procedure, shortened: (§1)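 Compound dissolved in 5 µl medium was pre-loaded into 384-well plates, and breast cancer cell lines in 20 µl suspension were seeded on top and incubated 72 h. After adding 2.5 µl CellTiter-Blue reagent for 2 h at 37 °C, fluorescence was read at 560/590 nm. Plates were normalised to vehicle (100) and a positive kill control (0), with Z'-factor quality control. Each value is normalised viability at a single listed concentration from the series.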

CAL-51 [2] = assay: as above; settings: 1 nM; incubation time: 72 h
Procedure, shortened: as §1

HCC1599 [3] = assay: as above; settings: 1 nM; incubation time: 72 h
Procedure, shortened: as §1

HDQ-P1 [4] = assay: normalised viability (% of control), CellTiter-Blue; higher = more viable cells (about 100 = DMSO control); settings: 1000 nM; incubation time: 72 h
Description: (§2)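 DSRT, CellTiter-Blue viability, 72 h incubation. Signal is normalised to DMSO and benzethonium chloride controls. Value is the normalised response at dose 7.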

CAL-51 [5] = assay: as above; settings: 1000 nM; incubation time: 72 h
Description: as §2

CAL-148 [6] = assay: as above; settings: 1000 nM; incubation time: 72 h
Description: as §2

CAL-85-1 [7] = assay: as above; settings: 1000 nM; incubation time: 72 h
Description: as §2

DU-4475 [8] = assay: as above; settings: 1000 nM; incubation time: 72 h
Description: as §2

MDA-MB-453 = assay: as above; settings: 1000 nM; incubation time: 72 h
Description: as §2

MDA-MB-468 = assay: drug sensitivity score (DSS), CellTox Green (DSS (AUC-based score)); higher = stronger drug effect (viability inhibition or cytotoxicity); extreme values may be limits of the assay; settings: incubation time: 72 h
Procedure, shortened: (§3)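 Breast cancer cell lines (20 µl suspension) were seeded into 384-well plates holding compound at 5 concentrations in 10-fold steps over a compound-specific 10,000-fold range, then incubated 72 h. CellTox Green fluorescence (485/520 nm) was read first, then CellTiter-Glo luminescence after 10 min at room temperature. Each plate was normalised to 0.1 % DMSO and a positive kill control. The drug sensitivity score was calculated from the area under the fitted dose-response curve.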

CAL-120 = assay: as above; settings: incubation time: 72 h
Procedure, shortened: as §3

MDA-MB-231 = assay: as above; settings: incubation time: 72 h
Procedure, shortened: as §3

BT-549 = assay: as above; settings: incubation time: 72 h
Procedure, shortened: as §3

HDQ-P1 [9] = assay: as above; settings: incubation time: 72 h
Procedure, shortened: as §3

BT-474 [10] = assay: as above; settings: incubation time: 72 h
Procedure, shortened: as §3

CAL-51 [11] = assay: as above; settings: incubation time: 72 h
Procedure, shortened: as §3

HCC1937 = assay: as above; settings: incubation time: 72 h
Procedure, shortened: as §3

MDA-MB-436 = assay: as above; settings: incubation time: 72 h
Procedure, shortened: as §3

Hs578T = assay: as above; settings: incubation time: 72 h
Procedure, shortened: as §3

HCC1143 = assay: as above; settings: incubation time: 72 h
Procedure, shortened: as §3

CAL-148 [12] = assay: as above; settings: incubation time: 72 h
Procedure, shortened: as §3

CAL-85-1 [13] = assay: as above; settings: incubation time: 72 h
Procedure, shortened: as §3

DU-4475 [14] = assay: as above; settings: incubation time: 72 h
Procedure, shortened: as §3

MCF-10A = assay: as above; settings: incubation time: 72 h
Procedure, shortened: as §3

HCC1599 [15] = assay: as above; settings: incubation time: 72 h
Procedure, shortened: as §3

MFM-223 = assay: as above; settings: incubation time: 72 h
Procedure, shortened: as §3

| SMILES | normalised viability (BT-474 [1]) [%] | normalised viability (CAL-51 [2]) [%] | normalised viability (HCC1599 [3]) [%] | normalised viability (HDQ-P1 [4]) [%] | normalised viability (CAL-51 [5]) [%] | normalised viability (CAL-148 [6]) [%] | normalised viability (CAL-85-1 [7]) [%] | normalised viability (DU-4475 [8]) [%] | normalised viability (MDA-MB-453) [%] | drug sensitivity score (MDA-MB-468) | drug sensitivity score (CAL-120) | drug sensitivity score (MDA-MB-231) | drug sensitivity score (BT-549) | drug sensitivity score (HDQ-P1 [9]) | drug sensitivity score (BT-474 [10]) | drug sensitivity score (CAL-51 [11]) | drug sensitivity score (HCC1937) | drug sensitivity score (MDA-MB-436) | drug sensitivity score (Hs578T) | drug sensitivity score (HCC1143) | drug sensitivity score (CAL-148 [12]) | drug sensitivity score (CAL-85-1 [13]) | drug sensitivity score (DU-4475 [14]) | drug sensitivity score (MCF-10A) | drug sensitivity score (HCC1599 [15]) | drug sensitivity score (MFM-223) |
| --- | --- | --- | --- | --- | --- | --- | --- | --- | --- | --- | --- | --- | --- | --- | --- | --- | --- | --- | --- | --- | --- | --- | --- | --- | --- | --- |
| CCCS(=O)(=O)Nc1ccc(F)c(C(=O)c2c[nH]c3ncc(-c4ccc(Cl)cc4)cc23)c1F [Vemurafenib] | 99.8 | 94.4 | 83.4 | 90.5 | 93.2 | 93.9 | 83.8 | 25.6 | 87.2 | 0 | 0 | 0.329 | 0 | 0 | 0 | 8.51 | 0 | 0 | 0 | 0 | 0 | 0 | 1.82 | 2.59 | 0 | 0 |
| C=CC(=O)Nc1cc2c(Nc3ccc(F)c(Cl)c3)ncnc2cc1OCCCN1CCOCC1 [Canertinib] | 97.5 | 109 | 94.8 | 55.4 | 101 | 68.6 | 49.5 | 114 | 33.8 | 5.52 | 2.34 | 3.46 | 0.986 | 3.34 | 3.65 | 5.83 | 0 | 0 | 6.15 | 0 | 0 | 8.99 | 0 | 8.86 | 0 | 2.12 |
| CC1=C(/C=C/C(C)=C/C=C/C(C)=C/C(=O)O)C(C)(C)CCC1 [Tretinoin] | 91.1 | 93.5 | 99.3 | 109 | 93.2 | 81.2 | 82.2 | 102 | 117 | 0 | 0 | 3.64 | 0 | 0 | 0.87 | 0 | 0 | 0 | 7.23 | 0 | 0 | 1.14 | 0 | 1.81 | 0 | 0 |
| O=C(Cc1ccc(-c2ccc(OCCN3CCOCC3)cc2)cn1)NCc1ccccc1 [KX2-391] | 79.1 | 106 | 85.8 | 45.1 | 11.1 | 18.4 | 33.9 | 9.93 | 25 | 30.1 | 1.54 | 0 | 0 | 4.28 | 3.97 | 20.3 | 3.38 | 4.73 | 11.4 | 0 | 0 | 17.3 | 0 | 15.5 | 3.99 | 13.2 |
| CCCCC(=O)OCC(=O)[C@]1(O)Cc2c(O)c3c(c(O)c2[C@@H](O[C@H]2C[C@H](NC(=O)C(F)(F)F)[C@H](O)[C@H](C)O2)C1)C(=O)c1c(OC)cccc1C3=O [Valrubicin] | 92.9 | 89.7 | 75.7 | 58 | 23.1 | 2.49 | 61.3 | 2.39 | 55.7 | 5.83 | 0.113 | 0 | 0 | 0 | 0 | 8.29 | 0 | 3.14 | 0.113 | 0 | 10.8 | 0 | 0 | 0 | 0 | 0 |
